Test results reported in US10669302B2, “Crystal form of fludarabine phosphate, preparation method therefor, and application thereof” (Zhejiang Hisun Pharmaceutical Co., Ltd., priority 2015, dated 2020).

Tests used:
[1] = Stability tests (sealed PE and aluminum foil bags, liquid chromatography); assay type: physicochemical; details: for Stability in words: under room temperature and refrigerated conditions, summary of Table 4
Protocol: The liquid chromatography test conditions involved in the present invention are: chromatographic column: SHIMADZU, VP-ODS, 4.6 mm×15 cm 5 μm or equivalent;
mobile phase A: 10 mM monopotassium phosphate (0.01 mol/l):methanol=47:3; detection wavelength: 260 nm; flow rate: 1.0 ml/min; injection volume: 10 μl.
Packaging condition: crystal form I and crystal form II of fludarabine phosphate were first sealed and packaged with PE bags respectively, and then sealed and packaged with aluminum foil bags outside, the samples were reserved at room temperature and refrigerated conditions, the samples were tested with the liquid chromatography. The test condition of the liquid chromatography is described in SUMMARY OF THE INVENTION section of this application.

[2] = Tests of dissolution rates (turbidimeter, purified water); assay type: physicochemical; set-up: Reading: unit not given here; details: for Solution state / Reading / Turbidity: 50 mg in 10 ml purified water; for Clarity achieved in purified water: in a short period of time, summary of Table 3; for Reading: turbidimeter
Protocol: The turbidimeter and the test conditions involved in the present invention are: turbidimeter model: MERCK TURBIQUANT 1500IR; operation method: the purified water was used as a zero point control, 50 mg of crystal form I of fludarabine phosphate and 50 mg of crystal form II of fludarabine phosphate were dissolved in 10 ml of purified water respectively as test samples, the specific test data can be seen in Table 3.
Tests of Dissolution Rates for Crystal Form I and Crystal Form II of Fludarabine Phosphate

[3] = before the samples were reserved
[4] = refrigerated (2-10° C.), humidity 75%, reserved for five months
[5] = refrigerated (2-10° C.), humidity 75%, reserved for four months
[6] = refrigerated (2-10° C.), humidity 75%, reserved for one month
[7] = refrigerated (2-10° C.), humidity 75%, reserved for six months
[8] = refrigerated (2-10° C.), humidity 75%, reserved for three months
[9] = refrigerated (2-10° C.), humidity 75%, reserved for two months
[10] = room temperature (10-30° C.), humidity 75%, reserved for five months
[11] = room temperature (10-30° C.), humidity 75%, reserved for four months
[12] = room temperature (10-30° C.), humidity 75%, reserved for one month
[13] = room temperature (10-30° C.), humidity 75%, reserved for six months
[14] = room temperature (10-30° C.), humidity 75%, reserved for three months
[15] = room temperature (10-30° C.), humidity 75%, reserved for two months
[16] = 10 s, listed as Cyrstal form II
[17] = 40 s, listed as Cyrstal form II

Row | Compound | Liquid chromatography result of stability sample [1, 3] [%] | Liquid chromatography result of stability sample [1, 4] [%] | Liquid chromatography result of stability sample [1, 5] [%] | Liquid chromatography result of stability sample [1, 6] [%] | Liquid chromatography result of stability sample [1, 7] [%] | Liquid chromatography result of stability sample [1, 8] [%] | Liquid chromatography result of stability sample [1, 9] [%] | Liquid chromatography result of stability sample [1, 10] [%] | Liquid chromatography result of stability sample [1, 11] [%] | Liquid chromatography result of stability sample [1, 12] [%] | Liquid chromatography result of stability sample [1, 13] [%] | Liquid chromatography result of stability sample [1, 14] [%] | Liquid chromatography result of stability sample [1, 15] [%] | Stability in words [1] | Solution state ([2]; 70 s) | Solution state ([2]; 80 s) | Solution state ([2]; 90 s) | Solution state ([2]; 100 s) | Clarity achieved in purified water [2] | also measured
1 | Nc1nc(F)nc2c1ncn2[C@@H]1O[C@H](COP(=O)(O)O)[C@@H](O)[C@@H]1O [Crystal form I, 9-β-D-arabinofuranosyl-2-fluoroadenine-5′-phosphate] | 99.685 | 99.685 | 99.685 | 99.685 | 99.685 | 99.685 | 99.685 | 99.684 | 99.684 | 99.685 | 99.684 | 99.685 | 99.685 | good stabilities | Clear | Clear | Clear | Clear | good clarity | Solution state ([2]; 5 s): Clear; Solution state ([2]; 10 s): Clear; Solution state ([2]; 20 s): Clear; Solution state ([2]; 30 s): Clear; Solution state ([2]; 40 s): Clear; Solution state ([2]; 50 s): Clear; Solution state ([2]; 60 s): Clear; Reading ([2]; 5 s): 2.2; Reading ([2]; 10 s): 1.75; Reading ([2]; 20 s): 1.75; Reading ([2]; 30 s): 1.75; Reading ([2]; 40 s): 1.75; Reading ([2]; 50 s): 1.75; Reading ([2]; 60 s): 1.75; Reading ([2]; 70 s): 1.75; Reading ([2]; 80 s): 1.75; Reading ([2]; 90 s): 1.75; Reading ([2]; 100 s): 1.75
2 | Nc1nc(F)nc2c1ncn2[C@@H]1O[C@H](COP(=O)(O)O)[C@@H](O)[C@@H]1O [Crystal form II, 9-β-D-arabinofuranosyl-2-fluoroadenine-5′-phosphate] | 99.677 | 99.677 | 99.677 | 99.677 | 99.677 | 99.677 | 99.677 | 99.663 | 99.663 | 99.673 | 99.663 | 99.667 | 99.668 | good stabilities | Clear | Clear | Clear | Clear | good clarity | Solution state ([2]; 5 s, listed as Cyrstal form II): Turbid; Turbidity ([2]; 5 s, listed as Cyrstal form II): Sample >1; Solution state [2, 16]: Turbid; Turbidity [2, 16]: Sample >1; Solution state ([2]; 20 s, listed as Cyrstal form II): Turbid; Solution state ([2]; 30 s, listed as Cyrstal form II): Turbid; Solution state [2, 17]: Turbid; Reading [2, 17]: 6.41; Reading ([2]; 50 s, listed as Cyrstal form II): 4.54; Reading ([2]; 60 s, listed as Cyrstal form II): 3.32; Reading ([2]; 70 s, listed as Cyrstal form II): 2.56; Reading ([2]; 80 s, listed as Cyrstal form II): 2.41; Reading ([2]; 90 s, listed as Cyrstal form II): 2.29; Reading ([2]; 100 s, listed as Cyrstal form II): 2.29
